From ChEMBL document CHEMBL4308841, “Synthesis, in vitro antiproliferative activity, and kinase inhibitory effects of pyrazole-containing diarylureas and diarylamides” (Eur J Med Chem, 2018)

Columns and labels:
[1] = test system: HCT-116; assay: Growth inhibition of human HCT116 cells incubated for 48 hrs by sulforhodamine B assay; type: functional, cell-based; conditions: HCT-116, 48 h
[2] = test system: OVCAR-4; assay: Growth inhibition of human OVCAR4 cells incubated for 48 hrs by sulforhodamine B assay; type: functional, cell-based; conditions: OVCAR-4, 48 h
[3] = test system: SN12C; assay: Growth inhibition of human SN12C cells incubated for 48 hrs by sulforhodamine B assay; type: functional, cell-based
[4] = test system: HOP-62; assay: Growth inhibition of human HOP62 cells assessed as cell growth at 0.01 uM incubated for 48 hrs by sulforhodamine B assay relative to control; type: functional; conditions: HOP-62, 48 h, read-out: Activity
[5] = test system: NCI-H522; assay: Growth inhibition of human NCI-H522 cells assessed as cell growth at 0.01 uM incubated for 48 hrs by sulforhodamine B assay relative to control; type: functional; conditions: NCI-H522, 48 h, read-out: Activity
[6] = test system: M14; assay: Growth inhibition of human M14 cells assessed as cell growth at 0.01 uM incubated for 48 hrs by sulforhodamine B assay relative to control; type: functional; conditions: M14, 48 h, read-out: Activity
[7] = test system: SK-MEL-2; assay: Growth inhibition of human SK-MEL-2 cells assessed as cell growth at 0.01 uM incubated for 48 hrs by sulforhodamine B assay relative to control; type: functional; conditions: SK-MEL-2, 48 h, read-out: Activity
[8] = test system: MCF7; assay: Growth inhibition of human MCF7 cells assessed as cell growth at 0.01 uM incubated for 48 hrs by sulforhodamine B assay relative to control; type: functional; conditions: MCF7, 48 h, read-out: Activity
[9] = test system: K562; assay: Growth inhibition of human K562 cells assessed as cell growth at 0.1 uM incubated for 48 hrs by sulforhodamine B assay relative to control; type: functional; conditions: K562, 48 h, read-out: Activity
[10] = test system: NCI-H226; assay: Growth inhibition of human NCI-H226 cells assessed as cell growth at 0.1 uM incubated for 48 hrs by sulforhodamine B assay relative to control; type: functional; conditions: NCI-H226, 48 h, read-out: Activity
[11] = test system: SNB-19; assay: Growth inhibition of human SNB19 cells assessed as cell growth at 0.1 uM incubated for 48 hrs by sulforhodamine B assay relative to control; type: functional; conditions: SNB-19, 48 h, read-out: Activity
[12] = test system: OVCAR-5; assay: Growth inhibition of human OVCAR5 cells assessed as cell growth at 0.1 uM incubated for 48 hrs by sulforhodamine B assay relative to control; type: functional; conditions: OVCAR-5, 48 h, read-out: Activity
[13] = test system: OVCAR-8; assay: Growth inhibition of human OVCAR8 cells assessed as cell growth at 0.1 uM incubated for 48 hrs by sulforhodamine B assay relative to control; type: functional; conditions: OVCAR-8, 48 h, read-out: Activity
[14] = test system: NCI-H460; assay: Growth inhibition of human NCI-H460 cells assessed as cell growth at 1 uM incubated for 48 hrs by sulforhodamine B assay relative to control; type: functional; conditions: NCI-H460, 48 h, read-out: Activity
[15] = test system: COLO 205; assay: Growth inhibition of human COLO205 cells assessed as cell growth at 1 uM incubated for 48 hrs by sulforhodamine B assay relative to control; type: functional; conditions: COLO 205, 48 h, read-out: Activity
[16] = test system: HT-29; assay: Growth inhibition of human HT-29 cells assessed as cell growth at 1 uM incubated for 48 hrs by sulforhodamine B assay relative to control; type: functional; conditions: HT-29, 48 h, read-out: Activity
[17] = test system: SK-MEL-5; assay: Growth inhibition of human SK-MEL-5 cells assessed as cell growth at 1 uM incubated for 48 hrs by sulforhodamine B assay relative to control; type: functional; conditions: SK-MEL-5, 48 h, read-out: Activity
[18] = test system: OVCAR-3; assay: Growth inhibition of human OVCAR3 cells assessed as cell growth at 1 uM incubated for 48 hrs by sulforhodamine B assay relative to control; type: functional; conditions: OVCAR-3, 48 h, read-out: Activity
[19] = test system: OVCAR-4; assay: Growth inhibition of human OVCAR4 cells assessed as cell growth at 1 uM incubated for 48 hrs by sulforhodamine B assay relative to control; type: functional; conditions: OVCAR-4, 48 h, read-out: Activity
[20] = test system: OVCAR-8; assay: Growth inhibition of human OVCAR8 cells assessed as cell growth at 1 uM incubated for 48 hrs by sulforhodamine B assay relative to control; type: functional; conditions: OVCAR-8, 48 h, read-out: Activity
[21] = test system: SK-OV-3; assay: Growth inhibition of human SKOV3 cells assessed as cell growth at 1 uM incubated for 48 hrs by sulforhodamine B assay relative to control; type: functional; conditions: SK-OV-3, 48 h, read-out: Activity
[22] = test system: T47D; assay: Growth inhibition of human T47D cells assessed as cell growth at 1 uM incubated for 48 hrs by sulforhodamine B assay relative to control; type: functional; conditions: read-out: Activity
[23] = test system: SR; assay: Growth inhibition of human SR cells assessed as cell growth at 100 uM incubated for 48 hrs by sulforhodamine B assay relative to control; type: functional; conditions: read-out: Activity
[24] = test system: NCI-H23; assay: Growth inhibition of human NCI-H23 cells assessed as cell growth at 100 uM incubated for 48 hrs by sulforhodamine B assay relative to control; type: functional; conditions: NCI-H23, 48 h, read-out: Activity
[25] = test system: COLO 205; assay: Growth inhibition of human COLO205 cells assessed as cell growth at 100 uM incubated for 48 hrs by sulforhodamine B assay relative to control; type: functional; conditions: COLO 205, 48 h, read-out: Activity
[26] = test system: KM12; assay: Growth inhibition of human KM12 cells assessed as cell growth at 100 uM incubated for 48 hrs by sulforhodamine B assay relative to control; type: functional; conditions: KM12, 48 h, read-out: Activity
[27] = test system: SF-295; assay: Growth inhibition of human SF295 cells assessed as cell growth at 100 uM incubated for 48 hrs by sulforhodamine B assay relative to control; type: functional; conditions: SF-295, 48 h, read-out: Activity
[28] = test system: SNB-75; assay: Growth inhibition of human SNB75 cells assessed as cell growth at 100 uM incubated for 48 hrs by sulforhodamine B assay relative to control; type: functional; conditions: SNB-75, 48 h, read-out: Activity
[29] = test system: OVCAR-8; assay: Growth inhibition of human OVCAR8 cells assessed as cell growth at 100 uM incubated for 48 hrs by sulforhodamine B assay relative to control; type: functional; conditions: OVCAR-8, 48 h, read-out: Activity
[30] = test system: T47D; assay: Growth inhibition of human T47D cells assessed as cell growth at 100 uM incubated for 48 hrs by sulforhodamine B assay relative to control; type: functional; conditions: read-out: Activity
[31] = test system: NCI-H522; assay: Growth inhibition of human NCI-H522 cells assessed as cell growth at 10 uM incubated for 48 hrs by sulforhodamine B assay relative to control; type: functional; conditions: NCI-H522, 48 h, read-out: Activity
[32] = read-out: LC50 (the source's name)
[33] = read-out: pLC50 (the source's name) (converted)

## O=C(Nc1cccc(-n2cc(-c3ccncc3)c(-c3cc(O)cc(Cl)c3)n2)c1)Nc1ccc(Cl)c(Cl)c1
[1]
  IC50: 1.74 µM
[1]; read-out: GI50
  GI50: 1.74 µM
[1]; [32]
  CC50: 9.59 µM
[1]; read-out: TGI
  TGI: 41 µM
[1]; read-out: pGI50 (converted)
  GI50: 1.74 µM
[1]; [33]
  CC50: 9.77 µM
[1]; read-out: pTGI (converted)
  TGI: 4.07 µM
[2]; read-out: GI50
  GI50: 2.9 µM
[2]; [32]
  CC50: > 100 µM
[2]; read-out: pGI50 (converted)
  GI50: 2.95 µM
[2]; [33]
  CC50: > 100 µM
[3]; read-out: GI50
  GI50: 2.78 µM
[3]; read-out: LC50
  LC50: > 100 µM
[3]; read-out: TGI
  TGI: 10.1 µM
[3]; read-out: pGI50 (converted)
  GI50: 2.75 µM
[3]; read-out: pLC50 (converted)
  LC50: > 100 µM
[3]; read-out: pTGI (converted)
  TGI: 18.2 µM
[4]
  growth at 0.01 µM: 105%
[5]
  growth at 0.01 µM: 88%
[6]
  growth at 0.01 µM: 99%
[7]
  growth at 0.01 µM: 59%
[8]
  growth at 0.01 µM: 93%
[9]
  growth at 0.1 µM: 100%
[10]
  growth at 0.1 µM: 89%
[11]
  growth at 0.1 µM: 95%
[12]
  growth at 0.1 µM: 90%
[13]
  growth at 0.1 µM: 97%
[14]
  growth at 1 µM: 58%
[15]
  growth at 1 µM: 101%
[16]
  growth at 1 µM: 96%
[17]
  growth at 1 µM: 86%
[18]
  growth at 1 µM: 85%
[19]
  growth at 1 µM: 100%
[20]
  growth at 1 µM: 56%
[21]
  growth at 1 µM: 110%
[22]
  growth at 1 µM: 96%
[23]
  growth at 100 µM: -30%
[24]
  growth at 100 µM: -35%
[25]
  growth at 100 µM: -88%
[26]
  growth at 100 µM: -63%
[27]
  growth at 100 µM: -58%
[28]
  growth at 100 µM: -15%
[29]
  growth at 100 µM: -38%
[30]
  growth at 100 µM: -39%

## COc1cc(Cl)cc(-c2nn(-c3cccc(NC(=O)c4ccc(Cl)c(Cl)c4)c3)cc2-c2ccncc2)c1
[31]
  growth at 10 µM: 53.7%
